Data: US12637703B2, “Compositions and methods for detection of oxidizable analytes” (President and Fellows of Harvard College, priority 2019, dated 2026)

Legend:
[1] = Fluorescence of dyes with hydrogen peroxide in HRP-free buffer; assay type: physicochemical; settings: 400-fold molar excess of hydrogen peroxide
Description: NIR dyes were dissolved in water (sulfo-cyanine dyes, Lumiprobe, Hannover, Germany, and all investigated IRDyes except for IRDye 800RS, LI-COR Biosciences, Lincoln, NE) or dimethyl sulfoxide (Sigma Aldrich, St. Louis, MO; cyanine dyes, Lumiprobe, and IRDye 80016, LI-COR Biosciences). 10 μL of dye solution ([…] Peroxide/Peroxidase Assay Kit A22188, Thermo Fisher Scientific, Waltham, MA) in sodium chloride-containing phosphate buffer (Sigma Aldrich) 50 mM at pH 7.5 at 300 mOsmol/kg and protected from light. After 10 min at room temperature, the fluorescence intensity was determined by a plate reader (BioTek NEO2, BioTek, Winooski, VT) at the fluorescence excitation and emission wavelength provided by the manufacturer.

[2] = molecular target: T1, horseradish peroxidase (HRP) (Armoracia rusticana, UniProt P00433); assay: Screening of NIR dye library for HRP substrates (hydrogen peroxide-dependent loss of fluorescence); assay type: biochemical; settings: for oxidation by HRP (loss of fluorescence) at different hydrogen peroxide concentrations: NIR dye 2.5 μM, HRP 105 mU/mL, phosphate buffer 50 mM pH 7.5; for oxidation by HRP (loss of fluorescence) at different hydrogen peroxide concentrations / hydrogen peroxide sensing profile (loss in relative fluorescence intensity): 10 min room temperature; for hydrogen peroxide sensing profile (loss in relative fluorescence intensity): different dye concentrations, HRP-containing buffer pH 7.5; for enzymatic oxidation by HRP, positive controls of the library screening: known HRP substrates, homovanillic acid 0.99 mM, HRP 0.10 U/mL, 10 min, Amplex Red 30 min, room temperature
T1 construct: purchased Thermo Fisher Scientific A22188
T1 sequence (P00433 31-338): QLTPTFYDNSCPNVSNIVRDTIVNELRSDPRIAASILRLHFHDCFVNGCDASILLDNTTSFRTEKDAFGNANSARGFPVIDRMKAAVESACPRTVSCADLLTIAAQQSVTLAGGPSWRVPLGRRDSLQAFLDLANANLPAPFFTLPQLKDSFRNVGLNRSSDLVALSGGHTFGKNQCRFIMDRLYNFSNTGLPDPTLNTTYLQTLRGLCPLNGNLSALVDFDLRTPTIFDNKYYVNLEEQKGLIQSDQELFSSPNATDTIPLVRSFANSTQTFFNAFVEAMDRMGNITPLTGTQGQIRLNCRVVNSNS
Description: FIGS. 2A-2C are related to screening of near-infrared (NIR) dye library for HRP substrates. NIR dye concentration: 2.5 μM; HRP concentration: 105 mU/mL; buffer composition: phosphate buffer 50 mM at pH 7.5; 10 min incubation time at room temperature. All results as means+SD (n=3).
FIG. 2E is a graph showing the relative fluorescence intensity of a homovanillic acid-containing solution in the presence of hydrogen peroxide and HRP, therefore evaluating hydrogen peroxide sensing with homovanillic acid (a known substrate of HRP) and HRP. HRP catalyzes the dimerization of homovanillic acid to a fluorescent product in the presence of hydrogen peroxide. HRP concentration: 0.10 U/mL; homovanillic acid: 0.99 mM; λex 312 nm; λem 430 nm; incubation time 10 min at room temperature. All results as mean±SD (n=3).
FIG. 2F is a graph showing the relative fluorescence intensity of an Amplex Red®-containing solution in the presence of hydrogen peroxide and HRP, therefore evaluating hydrogen peroxide sensing with Amplex Red® (a known substrate of HRP) and HRP. HRP catalyzes the oxidation of Amplex Red® to the fluorescent product resorufin in the presence of hydrogen peroxide. Excitation/emission wavelengths: λex 530 nm; λem 590 nm; incubation time 30 min at room temperature. Assay conducted in accordance to manufacturer's instructions. All results as mean±SD (n=3).
FIGS. 3B-3E are related to hydrogen peroxide sensing using HRP-mediated S7 oxidation. NIR dye concentration unless stated: 10 μM (FIG. 3C), 7.5 μM (FIG. 3D); HRP concentration: 105 mU/mL (FIG. 3B); buffer composition: phosphate buffer 50 mM at pH 7.5; 10 (FIGS. 3B, 3D) or 30 min (FIG. 3E) incubation time at room temperature. […] All results as means+SD (n=3).
NIR dyes were dissolved in water (sulfo-cyanine dyes, Lumiprobe, Hannover, Germany, and all investigated IRDyes except for IRDye 800RS, LI-COR Biosciences, Lincoln, NE) or dimethyl sulfoxide (Sigma Aldrich, St. Louis, MO; cyanine dyes, Lumiprobe, and IRDye 80016, LI-COR Biosciences). 10 μL of dye solution (final 2.5 μM) were added to 100 uL of HRP solution (final 105 mU/mL) and hydrogen peroxide standards (both from Amplex™ Red Hydrogen Peroxide/Peroxidase Assay Kit A22188, Thermo Fisher Scientific, Waltham, MA) in sodium chloride-containing phosphate buffer (Sigma Aldrich) 50 mM at pH 7.5 at 300 mOsmol/kg and protected from light. After 10 min at room temperature, the fluorescence intensity was determined by a plate reader (BioTek NEO2, BioTek, Winooski, VT) at the fluorescence excitation and emission wavelength provided by the manufacturer.
To determine the absorbance spectra of S7, 10 μL of dye solution (final 7.5 μM) were added to 100 μL of HRP solution (final 105 mU/mL) and hydrogen peroxide standards in isotonic phosphate buffer 50 mM at pH 7.5. After 15 min, the absorbance spectra were recorded by a plate reader (BioTek NEO2).

[3] = Superoxide testing (SOTS-1 as superoxide radical source); assay type: physicochemical; settings: 100-fold excess of superoxide radical (SOTS-1); 30 min room temperature; pH 7.5
Description: FIG. 3E is a graph showing the relative fluorescence intensity of several NIR dyes and the superoxide-sensitive dye DHE (positive control) at different concentrations of the superoxide radical source SOTS-1 (E).
Superoxide was generated in accordance with the literature. In brief, SOTS-1 (Cayman Chemicals, Ann Arbor, MI) was dissolved in dimethylformamide (Sigma Aldrich) and added to a near-infrared fluorescent dye-containing ([…]; DHE concentration 10 μM) isotonic phosphate buffer 50 mM at pH 7.5 ([…]) and protected from light. After 30 min at room temperature, the fluorescence intensity was determined by a plate reader (BioTek NEO2) at the fluorescence excitation and emission wavelength provided by the manufacturer.

| Molecule | fluorescence properties upon exposure to hydrogen peroxide without HRP [1] | hydrogen peroxide sensing profile (loss in relative fluorescence intensity) [2] | fluorescence emission in the presence of superoxide radical [3] | oxidation by HRP (loss of fluorescence) at different hydrogen peroxide concentrations [2] | enzymatic oxidation by HRP, positive controls of the library screening [2] |
| --- | --- | --- | --- | --- | --- |
| COc1cc(CC(=O)O)ccc1O [homovanillic acid] | – | – | – | – | enzymatically oxidized in a hydrogen peroxide-dependent manner |
| CC1(C)C(/C=C/C=C/C=C/C=C2\N(CCCCS(=O)(=O)O)c3ccc4ccccc4c3C2(C)C)=[N+](CCCCS(=O)(=O)[O-])c2ccc3ccccc3c21 [ICG, indocyanine green] | preserved their fluorescence properties | linear hydrogen peroxide sensing profile | – | oxidized by HRP in a hydrogen peroxide concentration-dependent manner | – |
| CC(=O)N1c2ccc(O)cc2Oc2cc(O)ccc21 [Amplex Red®] | – | – | – | – | enzymatically oxidized in a hydrogen peroxide-dependent manner |

Now from value to molecule, other results behind:

| fluorescence properties upon exposure to hydrogen peroxide without HRP [1] | hydrogen peroxide sensing profile (loss in relative fluorescence intensity) [2] | fluorescence emission in the presence of superoxide radical [3] | Molecule | oxidation by HRP (loss of fluorescence) at different hydrogen peroxide concentrations [2] | enzymatic oxidation by HRP, positive controls of the library screening [2] |
| --- | --- | --- | --- | --- | --- |
| preserved their fluorescence properties | followed a sigmoid curve | preserved their fluorescence emission | sulfo-cyanine 7 [S7] | oxidized by HRP in a hydrogen peroxide concentration-dependent manner | – |
| – | – | preserved their fluorescence emission | CN1/C(=C/C=C/C=C/C2=[N+](CCCCCC(=O)O)c3ccc(S(=O)(=O)O)cc3C2(C)C)C(C)(C)c2cc(S(=O)(=O)O)ccc21 [sulfo-cyanine 5] | – | – |
